From publication PMC9151520 (Archives of Toxicology, 2022)
pEC50: −log10 of the molar value. Values joined by “and” are separate entries in the source; they are usually repeats but may differ in a detail not shown here. Identical values can stand only once. Counter-ions that a name gives are not always drawn. Like-named read-outs stand apart in the source and are kept apart here.

How the values were obtained:
[1] = test system: p53 signaling (p53RE-bla HCT-116 cells); test: cells; assay type: cell-based
[2] = test system: p53 signaling (p53RE-bla HCT-116 cells)
[3] = test system: p53 signaling (p53RE-bla HCT-116 cells); remark: listed apart in the source
[4] = Homo sapiens, HCT-116, read-out: p53 activation EC50, cherry pick confirmation
[5] = Homo sapiens, HCT-116, read-out: p53 activation EC50, primary screening
[6] = Homo sapiens, HCT-116, read-out: p53 activation efficacy, cherry pick confirmation
[7] = Homo sapiens, HCT-116, read-out: p53 activation efficacy, primary screening
[8] = Homo sapiens, HCT-116, read-out: EC50, p53 activation, primary screening
[9] = Homo sapiens, HCT-116, read-out: Efficacy, p53 activation, primary screening

Structure (SMILES)	pEC50 [1, 4]	pEC50 [1, 5]	Emax [1, 6] [%]	Emax [1, 7] [%]	Viability EC50, cherry pick confirmation (p53RE-bla HCT-116 cells)	Viability EC50, primary screening (p53RE-bla HCT-116 cells)	Viability efficacy, cherry pick confirmation (p53RE-bla HCT-116 cells)	Viability efficacy, primary screening (p53RE-bla HCT-116 cells)	p53 activation EC50, cherry pick confirmation [2]	p53 activation EC50, primary screening [2]	p53 activation efficacy, cherry pick confirmation [2]	p53 activation efficacy, primary screening [2]	p53 activation EC50, cherry pick confirmation [3]	p53 activation EC50, primary screening [3]	p53 activation efficacy, cherry pick confirmation [3]	p53 activation efficacy, primary screening [3]	EC50, viability, primary screening (p53RE-bla HCT-116 cells)	EC50, p53 activation, cherry pick confirmation [2]	EC50, p53 activation, primary screening [2]	Efficacy, p53 activation, cherry pick confirmation [2]	further results
COP(=S)(OC)Oc1ccc([N+](=O)[O-])cc1 [Methyl parathion]																					p53 activation EC50 [1]: inactive; p53 activation efficacy [1]: inactive; Viability EC50 (p53RE-bla HCT-116 cells): inactive; Viability efficacy (p53RE-bla HCT-116 cells): inactive; p53 activation EC50 [2]: inactive; pEC50 ([2]; read-out: p53 activation EC50): 5.10; pEC50 [3]: 5.01; p53 activation efficacy [3]: 52.7126 and 58.5263
S=c1[nH]cnc2nc[nH]c12 [6-Mercaptopurine]	5.01	5.10	41.7	80.4	inactive	inactive	inactive	inactive	inactive	inactive	inactive	inactive	inactive	inactive	inactive	inactive					
COc1cccc2c1C(=O)c1c(O)c3c(c(O)c1C2=O)C[C@@](O)(C(=O)CO)C[C@@H]3O[C@H]1C[C@H](N)[C@H](O)[C@H](C)O1 [Adriamycin hydrochloride]																	inactive	inactive	inactive	inactive	pEC50 ([1]; Homo sapiens, HCT-116, read-out: EC50, p53 activation, cherry pick confirmation): 5.84; pEC50 [1, 8]: 6.02; Emax ([1]; Homo sapiens, HCT-116, read-out: Efficacy, p53 activation, cherry pick confirmation): 335%; Emax [1, 9]: 220%; EC50, viability, cherry pick confirmation (p53RE-bla HCT-116 cells): inactive; Efficacy, viability, cherry pick confirmation (p53RE-bla HCT-116 cells): inactive; Efficacy, viability, primary screening (p53RE-bla HCT-116 cells): inactive; Efficacy, p53 activation, primary screening [2]: inactive; EC50, p53 activation, cherry pick confirmation [3]: inactive; EC50, p53 activation, primary screening [3]: inactive; Efficacy, p53 activation, cherry pick confirmation [3]: inactive; Efficacy, p53 activation, primary screening [3]: inactive
Cn1cnc([N+](=O)[O-])c1Sc1ncnc2nc[nH]c12 [Azathioprine]																	inactive	inactive	inactive	inactive	EC50, p53 activation, cherry pick confirmation [1]: inactive; Efficacy, p53 activation, cherry pick confirmation [1]: inactive; pEC50 [1, 8]: 4.47; Emax [1, 9]: 39.9%; EC50, viability, cherry pick confirmation (p53RE-bla HCT-116 cells): inactive; Efficacy, viability, cherry pick confirmation (p53RE-bla HCT-116 cells): inactive; Efficacy, viability, primary screening (p53RE-bla HCT-116 cells): inactive; Efficacy, p53 activation, primary screening [2]: inactive; EC50, p53 activation, cherry pick confirmation [3]: inactive; EC50, p53 activation, primary screening [3]: inactive; Efficacy, p53 activation, cherry pick confirmation [3]: inactive; Efficacy, p53 activation, primary screening [3]: inactive
O=C(N/N=C/c1ccc([N+](=O)[O-])o1)c1ccc(O)cc1 [Nifuroxazide]	4.99	4.71	47.4	39.6	inactive	inactive	inactive	inactive	inactive	inactive	inactive	inactive	inactive	inactive	inactive	inactive					
CCC[CH2][Sn]([Cl])([Cl])[CH2]CCC [Dibutyltin dichloride]																	inactive	inactive	inactive	inactive	EC50, p53 activation, cherry pick confirmation [1]: inactive; Efficacy, p53 activation, cherry pick confirmation [1]: inactive; Efficacy, p53 activation, primary screening [1]: 73.9367; pEC50 ([1]; read-out: EC50, p53 activation, primary screening): 4.57; Efficacy, p53 activation, primary screening [2]: inactive; EC50, p53 activation, cherry pick confirmation [3]: inactive; EC50, p53 activation, primary screening [3]: inactive; Efficacy, p53 activation, cherry pick confirmation [3]: inactive; Efficacy, p53 activation, primary screening [3]: inactive
Cc1ccccc1C(=O)Nc1ccc(C(=O)N2CCCC(N(C)C)c3ccccc32)cc1 (centres unmarked) [Mozavaptan]	5.87	5.10	38.6	66.2	inactive	inactive	inactive	inactive	inactive	inactive	inactive	inactive	inactive	inactive	inactive	inactive					
